Laboratory results: ChEMBL document CHEMBL5634096, “Design, synthesis and bioevaluation of PI3Kα-selective inhibitors as potential colorectal cancer drugs” (Eur J Med Chem, 2023)
Calls of active or inactive are those of the source. No cut-off for these calls is given here.

Columns and labels:
[1] = target: Phosphatidylinositol 4,5-bisphosphate 3-kinase catalytic subunit alpha isoform (Homo sapiens, UniProt P42336); experiment: Inhibition of PI3Kalpha (unknown origin) by ADP-Glo luminescent kinase assay
[2] = Metabolic stability in artificial gastrointestinal fluid assessed as compound remaining measured upto 8 hrs by LC-MS/MS analysis; assay type: ADME
HCT-116 [3] = experiment: Antiproliferative activity against human HCT-116 cells assessed as reduction in cell viability incubated for 24 to 48 hrs by CCK-8 assay; assay type: functional, cell-based
HCT-116 [4] = experiment: Antiproliferative activity against human HCT-116 cells assessed as reduction in cell viability incubated for 48 hrs by CCK-8 assay; assay type: functional, cell-based; conditions: dose 20-80 µM
[5] = MRT (0 to infinity) in Sprague-Dawley rat at 5 mg/kg, iv measured upto 24 hrs by LC-MS analysis; assay type: ADME, organism-based; conditions: in vivo
[6] = Metabolic stability in Sprague-Dawley rat plasma assessed as compound remaining measured upto 3 hrs by LC-MS/MS analysis; assay type: ADME, cell-free
[7] = Half life in Sprague-Dawley rat at 5 mg/kg, iv measured upto 24 hrs by LC-MS analysis; assay type: ADME, organism-based; conditions: in vivo
Cytochrome P450 2D6 = Cytochrome P450 2D6 (Homo sapiens, UniProt P10635); experiment: Inhibition of CYP2D6 in human liver microsomes using dextromethorphan as substrate pre-incubated for 30 mins followed by substrate addition and measured after 15 mins in presence of NADPH by LC/MS analysis; assay type: ADME, Microsome
[8] = Volume of distribution in Sprague-Dawley rat at 5 mg/kg, iv measured upto 24 hrs by LC-MS analysis; assay type: ADME, organism-based; conditions: in vivo
[9] = Metabolic stability in Sprague-Dawley rat liver microsomes assessed as half life at 5 ug/ml incubated for 1 hr in presence of NADPH by LC-MS/MS analysis; assay type: ADME, Microsome; conditions: dose 5 µg/ml
[10] = Cytotoxicity against human MCF-10A cells assessed as reduction in cell viability incubated for 24 to 48 hrs by CCK-8 assay; assay type: toxicity, cell-based
[11] = AUC (0 to t) in Sprague-Dawley rat at 5 mg/kg, iv measured upto 24 hrs by LC-MS analysis; assay type: ADME, organism-based; conditions: in vivo
[12] = AUC (0 to infinity) in Sprague-Dawley rat at 5 mg/kg, iv measured upto 24 hrs by LC-MS analysis; assay type: ADME, organism-based; conditions: in vivo
HCT-116 [13] = experiment: Induction of apoptosis in human HCT-116 cells assessed as increased total apoptotic cells at 6 uM incubated for 48 hrs by Annexin V-FITC and propidium iodide staining based flow cytometry analysis (reference value: 4.22 %); assay type: functional
[14] = Clearance in Sprague-Dawley rat at 5 mg/kg, iv measured upto 24 hrs by LC-MS analysis; assay type: ADME, organism-based; conditions: in vivo
HCT-116 [15] = experiment: Antiproliferative activity against human HCT-116 cells assessed as inhibition of colony formation at 6 uM incubated for 48 hrs by crystal violet staining based assay; assay type: functional, cell-based
MDA-MB-231 = experiment: Antiproliferative activity against human MDA-MB-231 cells assessed as reduction in cell viability incubated for 24 to 48 hrs by CCK-8 assay; assay type: functional, cell-based
SW-620 = experiment: Antiproliferative activity against human SW-620 cells assessed as reduction in cell viability incubated for 24 to 48 hrs by CCK-8 assay; assay type: functional, cell-based
[16] = Metabolic stability in Sprague-Dawley rat liver microsomes assessed as intrinsic clearance at 5 ug/ml incubated for 1 hr in presence of NADPH by LC-MS/MS analysis; assay type: ADME, Microsome; conditions: dose 5 µg/ml
[17] = target: T1, Phosphatidylinositol 4,5-bisphosphate 3-kinase catalytic subunit delta isoform (Homo sapiens, UniProt O00329); experiment: Inhibition of PI3Kdelta (unknown origin) by ADP-Glo luminescent kinase assay
T1 sequence (O00329 whole entry): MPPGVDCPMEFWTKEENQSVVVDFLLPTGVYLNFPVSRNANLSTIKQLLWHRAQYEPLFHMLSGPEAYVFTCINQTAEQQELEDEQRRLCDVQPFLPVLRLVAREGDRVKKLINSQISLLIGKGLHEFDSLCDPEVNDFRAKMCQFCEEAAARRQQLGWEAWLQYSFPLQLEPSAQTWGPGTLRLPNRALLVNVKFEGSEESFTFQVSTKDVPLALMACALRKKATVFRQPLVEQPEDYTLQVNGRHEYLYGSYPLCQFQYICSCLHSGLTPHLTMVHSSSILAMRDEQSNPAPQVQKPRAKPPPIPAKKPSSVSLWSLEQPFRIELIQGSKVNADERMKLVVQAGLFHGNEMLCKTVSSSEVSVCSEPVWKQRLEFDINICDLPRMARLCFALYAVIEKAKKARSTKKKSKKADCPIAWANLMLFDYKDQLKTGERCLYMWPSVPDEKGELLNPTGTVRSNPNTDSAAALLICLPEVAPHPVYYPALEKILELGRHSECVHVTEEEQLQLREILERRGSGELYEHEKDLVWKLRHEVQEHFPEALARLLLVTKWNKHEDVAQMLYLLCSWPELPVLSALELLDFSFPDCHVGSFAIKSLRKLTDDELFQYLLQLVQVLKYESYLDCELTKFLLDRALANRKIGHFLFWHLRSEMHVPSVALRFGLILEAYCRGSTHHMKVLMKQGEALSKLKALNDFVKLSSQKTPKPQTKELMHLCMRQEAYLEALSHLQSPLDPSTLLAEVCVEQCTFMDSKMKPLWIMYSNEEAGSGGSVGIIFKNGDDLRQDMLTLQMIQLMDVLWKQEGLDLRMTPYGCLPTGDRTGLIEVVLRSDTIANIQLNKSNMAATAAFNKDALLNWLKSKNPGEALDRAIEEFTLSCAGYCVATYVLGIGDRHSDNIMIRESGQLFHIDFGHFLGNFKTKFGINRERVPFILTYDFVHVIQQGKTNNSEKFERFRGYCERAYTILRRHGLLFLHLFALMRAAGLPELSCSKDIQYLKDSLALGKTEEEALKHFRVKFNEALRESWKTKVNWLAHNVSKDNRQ

MCF7 [18] = experiment: Antiproliferative activity against human MCF7 cells expressing PIK3CA with E545K mutation assessed as reduction in cell viability incubated for 24 to 48 hrs by CCK-8 assay; assay type: functional, cell-based
Cytochrome P450 1A2 = Cytochrome P450 1A2 (Homo sapiens, UniProt P05177); experiment: Inhibition of CYP1A2 in human liver microsomes using phenacetin as substrate pre-incubated for 30 mins followed by substrate addition and measured after 15 mins in presence of NADPH by LC/MS analysis; assay type: ADME, Microsome
[19] = Metabolic stability in Sprague-Dawley rat liver microsomes assessed as compound remaining at 5 ug/ml incubated for 1 hr in presence of NADPH by LC-MS/MS analysis; assay type: ADME, Microsome; conditions: at 5 µg/mL, read-out: Stability
Cytochrome P450 3A4 = Cytochrome P450 3A4 (Homo sapiens, UniProt P08684); experiment: Inhibition of CYP3A4 in human liver microsomes using midazolam as substrate pre-incubated for 30 mins followed by substrate addition and measured after 15 mins in presence of NADPH by LC/MS analysis; assay type: ADME, Microsome
Cytochrome P450 2C19 = Cytochrome P450 2C19 (Homo sapiens, UniProt P33261); experiment: Inhibition of CYP2C19 in human liver microsomes using omeprazole as substrate pre-incubated for 30 mins followed by substrate addition and measured after 15 mins in presence of NADPH by LC/MS analysis; assay type: ADME, Microsome
[20] = MRT (0 to t) in Sprague-Dawley rat at 5 mg/kg, iv measured upto 24 hrs by LC-MS analysis; assay type: ADME, organism-based; conditions: in vivo
HCT-116 [21] = experiment: Antiproliferative activity against human HCT-116 cells expressing PIK3CA with H1047R mutation assessed as reduction in cell viability incubated for 24 to 48 hrs by CCK-8 assay; assay type: functional, cell-based
MCF7 [22] = experiment: Antiproliferative activity against human MCF7 cells assessed as reduction in cell viability incubated for 24 to 48 hrs by CCK-8 assay; assay type: functional, cell-based
[23] = Cmax in Sprague-Dawley rat at 5 mg/kg, iv measured upto 24 hrs by LC-MS analysis; assay type: ADME, organism-based; conditions: in vivo
[24] = target: Phosphatidylinositol 4,5-bisphosphate 3-kinase catalytic subunit gamma isoform (Homo sapiens, UniProt P48736); experiment: Inhibition of PI3Kgamma (unknown origin) by ADP-Glo luminescent kinase assay
[25] = target: Phosphatidylinositol 4,5-bisphosphate 3-kinase catalytic subunit beta isoform (Homo sapiens, UniProt P42338); experiment: Inhibition of PI3Kbeta (unknown origin) by ADP-Glo luminescent kinase assay
[26] = Cytotoxicity against human NCM460 cells assessed as reduction in cell viability incubated for 24 to 48 hrs by CCK-8 assay; assay type: toxicity, cell-based
Cytochrome P450 2C9 = Cytochrome P450 2C9 (Homo sapiens, UniProt P11712); experiment: Inhibition of CYP2C9 in human liver microsomes using tolbutamide as substrate pre-incubated for 30 mins followed by substrate addition and measured after 15 mins in presence of NADPH by LC/MS analysis; assay type: ADME, Microsome
Chain of Cytochrome P450 2C9 (P11712 whole entry): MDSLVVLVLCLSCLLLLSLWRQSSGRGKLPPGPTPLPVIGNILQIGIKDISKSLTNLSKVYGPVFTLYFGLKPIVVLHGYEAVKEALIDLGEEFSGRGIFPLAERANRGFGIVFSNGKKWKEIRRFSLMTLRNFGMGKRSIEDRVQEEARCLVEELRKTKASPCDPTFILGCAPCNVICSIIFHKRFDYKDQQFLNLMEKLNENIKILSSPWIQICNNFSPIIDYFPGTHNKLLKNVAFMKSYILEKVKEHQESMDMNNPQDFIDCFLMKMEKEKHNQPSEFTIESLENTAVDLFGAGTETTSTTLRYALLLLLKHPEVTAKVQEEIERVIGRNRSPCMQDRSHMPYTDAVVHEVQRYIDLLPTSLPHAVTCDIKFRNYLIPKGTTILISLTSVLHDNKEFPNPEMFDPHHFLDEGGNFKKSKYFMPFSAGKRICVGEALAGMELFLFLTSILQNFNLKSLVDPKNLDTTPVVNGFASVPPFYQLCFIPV

Chain of Phosphatidylinositol 4,5-bisphosphate 3-kinase catalytic subunit alpha isoform (P42336 whole entry, canonical isoform): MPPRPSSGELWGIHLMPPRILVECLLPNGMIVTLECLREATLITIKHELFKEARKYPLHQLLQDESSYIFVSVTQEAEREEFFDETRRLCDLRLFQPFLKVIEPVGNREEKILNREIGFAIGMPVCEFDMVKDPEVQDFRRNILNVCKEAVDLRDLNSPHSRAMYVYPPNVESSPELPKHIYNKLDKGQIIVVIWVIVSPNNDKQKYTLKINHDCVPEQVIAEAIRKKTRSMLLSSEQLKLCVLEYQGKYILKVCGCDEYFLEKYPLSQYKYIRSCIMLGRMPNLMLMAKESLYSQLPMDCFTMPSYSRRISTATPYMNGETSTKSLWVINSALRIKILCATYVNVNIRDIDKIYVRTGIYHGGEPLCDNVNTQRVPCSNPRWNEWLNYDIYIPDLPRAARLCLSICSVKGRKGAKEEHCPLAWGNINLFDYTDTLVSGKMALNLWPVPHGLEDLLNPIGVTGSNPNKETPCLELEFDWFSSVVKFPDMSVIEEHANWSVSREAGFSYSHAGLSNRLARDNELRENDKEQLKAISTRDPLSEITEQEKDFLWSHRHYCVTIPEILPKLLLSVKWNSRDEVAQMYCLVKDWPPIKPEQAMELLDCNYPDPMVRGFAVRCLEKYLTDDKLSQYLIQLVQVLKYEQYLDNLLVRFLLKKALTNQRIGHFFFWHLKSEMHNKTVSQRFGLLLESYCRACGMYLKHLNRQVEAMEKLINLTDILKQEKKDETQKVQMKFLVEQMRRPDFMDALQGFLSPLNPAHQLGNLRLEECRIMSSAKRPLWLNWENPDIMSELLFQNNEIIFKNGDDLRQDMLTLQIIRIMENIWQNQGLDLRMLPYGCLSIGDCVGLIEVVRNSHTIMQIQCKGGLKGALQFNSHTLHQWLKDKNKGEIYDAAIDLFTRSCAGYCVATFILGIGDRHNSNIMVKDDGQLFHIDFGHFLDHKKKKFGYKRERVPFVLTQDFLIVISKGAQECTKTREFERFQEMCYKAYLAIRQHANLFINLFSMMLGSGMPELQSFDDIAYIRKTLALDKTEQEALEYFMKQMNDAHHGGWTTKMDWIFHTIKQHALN
Chain of Phosphatidylinositol 4,5-bisphosphate 3-kinase catalytic subunit beta isoform (P42338 whole entry, canonical isoform): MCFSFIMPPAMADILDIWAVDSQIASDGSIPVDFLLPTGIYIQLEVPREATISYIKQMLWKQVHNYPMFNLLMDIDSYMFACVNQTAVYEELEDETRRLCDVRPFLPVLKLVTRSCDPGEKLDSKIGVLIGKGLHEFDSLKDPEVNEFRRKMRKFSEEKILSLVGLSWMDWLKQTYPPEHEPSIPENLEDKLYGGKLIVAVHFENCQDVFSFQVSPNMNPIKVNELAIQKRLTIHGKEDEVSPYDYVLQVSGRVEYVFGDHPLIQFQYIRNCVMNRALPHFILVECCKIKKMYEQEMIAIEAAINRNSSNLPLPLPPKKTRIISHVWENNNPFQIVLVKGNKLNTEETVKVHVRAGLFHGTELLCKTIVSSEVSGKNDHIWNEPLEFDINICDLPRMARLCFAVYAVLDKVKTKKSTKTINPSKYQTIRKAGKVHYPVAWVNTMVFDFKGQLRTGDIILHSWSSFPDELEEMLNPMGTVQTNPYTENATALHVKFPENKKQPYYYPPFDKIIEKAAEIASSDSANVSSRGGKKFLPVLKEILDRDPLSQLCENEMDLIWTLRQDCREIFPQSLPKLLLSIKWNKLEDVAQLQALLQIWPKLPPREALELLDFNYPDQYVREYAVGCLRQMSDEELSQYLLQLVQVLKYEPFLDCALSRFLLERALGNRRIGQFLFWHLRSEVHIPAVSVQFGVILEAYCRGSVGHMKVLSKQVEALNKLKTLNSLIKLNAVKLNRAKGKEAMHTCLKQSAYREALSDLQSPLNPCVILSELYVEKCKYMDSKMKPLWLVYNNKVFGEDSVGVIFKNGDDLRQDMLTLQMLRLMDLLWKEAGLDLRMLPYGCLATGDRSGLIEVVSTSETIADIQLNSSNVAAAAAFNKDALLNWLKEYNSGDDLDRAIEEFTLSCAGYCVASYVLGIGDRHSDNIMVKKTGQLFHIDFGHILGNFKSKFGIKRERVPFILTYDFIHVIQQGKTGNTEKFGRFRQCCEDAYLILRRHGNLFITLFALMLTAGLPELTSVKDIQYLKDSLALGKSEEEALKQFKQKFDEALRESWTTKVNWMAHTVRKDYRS
Chain of Phosphatidylinositol 4,5-bisphosphate 3-kinase catalytic subunit gamma isoform (P48736 whole entry, canonical isoform): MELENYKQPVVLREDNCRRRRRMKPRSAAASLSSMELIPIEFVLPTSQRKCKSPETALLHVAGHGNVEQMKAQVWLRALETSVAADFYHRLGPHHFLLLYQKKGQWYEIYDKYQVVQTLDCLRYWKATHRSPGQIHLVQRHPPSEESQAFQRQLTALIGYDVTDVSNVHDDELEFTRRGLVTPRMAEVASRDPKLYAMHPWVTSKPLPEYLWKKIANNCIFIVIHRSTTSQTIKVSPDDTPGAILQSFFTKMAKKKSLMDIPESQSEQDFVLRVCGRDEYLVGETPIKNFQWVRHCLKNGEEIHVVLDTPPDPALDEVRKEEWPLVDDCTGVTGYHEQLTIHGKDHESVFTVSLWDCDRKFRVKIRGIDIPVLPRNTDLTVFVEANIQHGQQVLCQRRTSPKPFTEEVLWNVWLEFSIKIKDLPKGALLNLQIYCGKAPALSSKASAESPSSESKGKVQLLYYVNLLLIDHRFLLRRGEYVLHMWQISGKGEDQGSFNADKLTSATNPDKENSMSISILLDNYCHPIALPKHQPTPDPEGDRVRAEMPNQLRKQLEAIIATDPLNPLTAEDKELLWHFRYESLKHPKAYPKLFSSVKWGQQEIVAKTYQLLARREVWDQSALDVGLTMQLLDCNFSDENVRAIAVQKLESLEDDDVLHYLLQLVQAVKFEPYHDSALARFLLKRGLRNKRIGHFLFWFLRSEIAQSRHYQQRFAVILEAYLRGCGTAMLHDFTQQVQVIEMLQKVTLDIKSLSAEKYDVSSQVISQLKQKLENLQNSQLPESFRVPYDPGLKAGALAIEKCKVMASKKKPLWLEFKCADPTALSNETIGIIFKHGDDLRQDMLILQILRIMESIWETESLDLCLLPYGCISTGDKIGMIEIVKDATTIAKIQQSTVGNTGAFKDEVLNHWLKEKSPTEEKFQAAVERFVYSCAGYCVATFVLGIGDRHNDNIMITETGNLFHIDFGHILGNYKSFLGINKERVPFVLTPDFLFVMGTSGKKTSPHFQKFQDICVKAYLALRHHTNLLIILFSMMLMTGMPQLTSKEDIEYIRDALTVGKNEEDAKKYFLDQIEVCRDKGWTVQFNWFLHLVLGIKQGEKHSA
Chain of Cytochrome P450 3A4 (P08684 whole entry): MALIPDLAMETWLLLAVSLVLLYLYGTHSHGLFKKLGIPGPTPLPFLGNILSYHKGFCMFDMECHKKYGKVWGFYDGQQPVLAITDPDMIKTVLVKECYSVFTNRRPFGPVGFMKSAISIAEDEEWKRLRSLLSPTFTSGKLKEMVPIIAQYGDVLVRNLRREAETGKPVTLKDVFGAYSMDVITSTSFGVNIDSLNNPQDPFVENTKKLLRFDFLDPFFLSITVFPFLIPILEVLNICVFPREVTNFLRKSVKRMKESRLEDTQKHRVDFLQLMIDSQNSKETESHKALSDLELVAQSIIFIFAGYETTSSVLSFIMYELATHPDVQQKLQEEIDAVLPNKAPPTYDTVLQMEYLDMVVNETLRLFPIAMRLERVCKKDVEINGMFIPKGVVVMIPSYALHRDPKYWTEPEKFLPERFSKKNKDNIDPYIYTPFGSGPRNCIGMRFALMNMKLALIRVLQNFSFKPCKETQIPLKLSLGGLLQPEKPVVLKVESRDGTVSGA
Chain of Cytochrome P450 2C19 (P33261 whole entry): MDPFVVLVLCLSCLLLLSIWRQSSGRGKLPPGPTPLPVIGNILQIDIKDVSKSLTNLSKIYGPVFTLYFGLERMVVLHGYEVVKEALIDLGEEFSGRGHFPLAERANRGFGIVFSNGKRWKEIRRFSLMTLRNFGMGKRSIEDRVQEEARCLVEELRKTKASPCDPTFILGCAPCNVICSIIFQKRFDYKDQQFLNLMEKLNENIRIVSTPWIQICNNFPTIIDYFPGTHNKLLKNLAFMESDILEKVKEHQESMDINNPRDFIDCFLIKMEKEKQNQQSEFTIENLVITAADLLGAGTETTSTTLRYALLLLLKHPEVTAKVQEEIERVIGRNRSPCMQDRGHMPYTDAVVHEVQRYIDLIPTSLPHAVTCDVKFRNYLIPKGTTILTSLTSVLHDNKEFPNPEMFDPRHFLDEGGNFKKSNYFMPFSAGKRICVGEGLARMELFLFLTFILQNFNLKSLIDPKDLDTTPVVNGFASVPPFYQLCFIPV

Nc1nc2cc(-c3ccc4ncc(C(=O)N5CCOCC5)n4c3)ccc2o1 [SERABELISIB]
IC50 [1]: 0.011 µM
Stability [2]: Stable
IC50 (HCT-116 [3]): 5.8 µM
Activity (HCT-116 [4]): Dose-Dependent Effect
MRT inf [5]: 7.9 h
Stability [6]: Stable
half-life [7]: 5.9 h
IC50 (Cytochrome P450 2D6): > 10 µM
Vd [8]: 5.6 L/kg
half-life at 5 ug/ml [9]: 4.44 h
IC50 [10]: 34.1 µM
AUC(0-t) at 24 h [11]: 7120 ng·h/mL
AUC(0-inf) [12]: 7520 ng·h/mL
Activity (HCT-116 [13]): 11.68%
clearance [14]: 11.7 mL/min/kg
Activity (HCT-116 [15]): Active
IC50 (MDA-MB-231): 15.8 µM
IC50 (SW-620): 9.99 µM
CLH [16]: 5 µL/min/mg
IC50 [17]: 0.328 µM
IC50 (MCF7 [18]): 3.76 µM
IC50 (Cytochrome P450 1A2): > 10 µM
remaining at 1 h, 5 ug/ml [19]: 86.2%
IC50 (Cytochrome P450 3A4): > 10 µM
IC50 (Cytochrome P450 2C19): > 10 µM
MRT last at 24 h [20]: 6.5 h
IC50 (HCT-116 [21]): 14.1 µM
IC50 (MCF7 [22]): 0.64 µM
Cmax [23]: 1680 ng/mL
IC50 [24]: 0.402 µM
IC50 [25]: 0.594 µM
IC50 [26]: 29 µM
IC50 (Cytochrome P450 2C9): > 10 µM
